According to ChEMBL document CHEMBL5252572, “Design, synthesis, and anti-triple negative breast cancer activity of novel Toosendanin derivatives” (Bioorg Med Chem Lett, 2023):
Counter-ions that a name gives are not always drawn. Activity calls are given as the source filed them. No cut-off for these calls is given here.

Experiments:
4T1 [1] = test: Antitumor activity against mouse 4T1 cells implanted in BALB/C mouse assessed as tumor growth inhibition at 4 mg/kg administered once every two days for 15 days in the presence of toosendanin relative to control; format: functional; settings: 4T1, 360 h, time 15 day, read-out: TGI
HCC1806 [2] = test: Antiproliferative activity against human HCC1806 cells assessed as inhibition of cell growth at 20 uM by SRB assay relative to control; format: functional
MDA-MB-231 [3] = test: Antiproliferative activity against human MDA-MB-231 cells assessed as inhibition of cell growth at 20 uM by SRB assay relative to control; format: functional
HCC1806 [4] = test: Inhibition of ERK phosphorylation in human HCC1806 cells at 10 uM incubated for 24 hrs by Western blot analysis; format: cell-based
HCC1806 [5] = test: Antitumor activity against human HCC1806 cells assessed as reduction in p53 protein level at 10 uM incubated for 24 hrs by Western blot analysis; format: functional, cell-based
HCC1806 [6] = test: Induction of cell cycle arrest in human HCC1806 cells assessed as accumulation at S phase at 10 uM incubated for 24 hrs by flow cytometric analysis; format: functional, cell-based
HCC1806 [7] = test: Induction of cell cycle arrest in human HCC1806 cells assessed as decrease in G2/M phase cells at 10 uM incubated for 24 hrs by flow cytometric analysis; format: functional, cell-based
4T1 [8] = test: Antitumor activity against mouse 4T1 cells implanted in BALB/C mouse assessed as tumor growth inhibition at 0.69 mg/kg administered once every two days for 15 days in the presence of adriamycin relative to control; format: functional; settings: 4T1, 360 h, time 15 day, read-out: TGI
HCC1806 [9] = test: Antiproliferative activity against human HCC1806 cells assessed as inhibition of cell growth by SRB assay; format: functional, cell-based
HCC1806 [10] = test: Antitumor activity against human HCC1806 cells assessed as induction of phosphorylated p38 protein accumulation at 10 uM incubated for 24 hrs by Western blot analysis; format: functional, cell-based
[11] = target: RAC-alpha serine/threonine-protein kinase (Homo sapiens) (UniProt P31749); test: Inhibition of AKT phosphorylation in human HCC1806 cells at 10 uM incubated for 24 hrs by Western blot analysis; format: cell-based
Sequence of RAC-alpha serine/threonine-protein kinase (Homo sapiens) (P31749 whole entry): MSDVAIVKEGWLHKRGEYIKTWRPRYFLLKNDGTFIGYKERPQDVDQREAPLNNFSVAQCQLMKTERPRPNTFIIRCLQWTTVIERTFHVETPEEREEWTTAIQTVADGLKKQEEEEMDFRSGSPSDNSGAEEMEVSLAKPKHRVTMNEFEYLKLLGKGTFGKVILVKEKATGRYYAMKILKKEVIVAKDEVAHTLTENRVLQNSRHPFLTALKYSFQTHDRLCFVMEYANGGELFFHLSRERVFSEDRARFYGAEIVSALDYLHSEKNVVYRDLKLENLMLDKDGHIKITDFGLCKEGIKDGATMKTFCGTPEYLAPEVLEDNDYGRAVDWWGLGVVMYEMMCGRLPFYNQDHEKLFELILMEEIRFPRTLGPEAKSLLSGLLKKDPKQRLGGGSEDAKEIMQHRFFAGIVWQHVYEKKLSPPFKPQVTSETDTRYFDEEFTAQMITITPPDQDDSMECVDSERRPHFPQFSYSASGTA

MDA-MB-231 [12] = test: Antiproliferative activity against human MDA-MB-231 cells assessed as inhibition of cell growth by SRB assay; format: functional, cell-based
HCC1806 [13] = test: Antitumor activity against human HCC1806 cells assessed as induction of p21 protein accumulation at 10 uM incubated for 24 hrs by Western blot analysis; format: functional, cell-based

Structure (SMILES) | inhibition at 20 µM (HCC1806 [2]) [%] | inhibition at 20 µM (MDA-MB-231 [3]) [%] | further results
COc1cccc2c1C(=O)c1c(O)c3c(c(O)c1C2=O)C[C@@](O)(C(=O)CO)C[C@@H]3O[C@H]1C[C@H](N)[C@H](O)[C@H](C)O1 [DOXORUBICIN HYDROCHLORIDE] | – | – | inhibition in vivo at 4 mg/kg (4T1 [1]): 90%
CC(=O)OC1OC[C@]23[C@@H](OC(C)=O)C[C@@H](OC(C)=O)[C@@]1(C)[C@@H]2C[C@@H](OC(C)=O)[C@]1(C)[C@@H]3C(=O)[C@H](OC(C)=O)[C@@]2(C)[C@H](c3ccoc3)C[C@H]3O[C@@]312 (stereo partly drawn) | -31 | 128 | –
CC(=O)O[C@@H]1C[C@H](O)[C@@]23COC[C@]1(C)[C@@H]2C[C@@H](O)[C@@]1(C)[C@@H]2C(=O)C[C@@H](c4coc(Br)c4)[C@]2(C)[C@@H](OC(C)=O)C(=O)[C@@H]13 | 2.97 | -5.16 | –
CC(=O)O[C@@H]1C[C@H](O)[C@@]23CO[C@@H](O)[C@]1(C)[C@@H]2C[C@@H](O)[C@]1(C)[C@@H]3C(=O)[C@H](OC(C)=O)[C@@]2(C)[C@H](c3ccoc3)C[C@H]3O[C@]321 [TOOSENDANIN] | 101 | 79.2 | inhibition (HCC1806 [4]): Active; Activity (HCC1806 [5]): Active; Activity (HCC1806 [6]): Active; Activity (HCC1806 [7]): Active; inhibition in vivo at 0.69 mg/kg (4T1 [8]): 90%; IC50 (HCC1806 [9]): 0.019 µM; Activity (HCC1806 [10]): Active; inhibition [11]: Active; IC50 (MDA-MB-231 [12]): 0.115 µM; Activity (HCC1806 [13]): Active
COc1ccc(C(=O)O[C@@H]2C[C@H]3[C@@]4(C)COC[C@@]3([C@@H](O)C[C@H]4OC(C)=O)[C@H]3C(=O)[C@H](OC(C)=O)[C@]4(C)[C@@H](C(=O)C[C@H]4c4ccoc4)[C@]23C)cc1 | 0.37 | 14.3 | –
CC(=O)O[C@@H]1C[C@H](O)[C@@]23COC[C@]1(C)[C@@H]2C[C@@H](OC(=O)c1ccc([N+](=O)[O-])cc1)[C@@]1(C)[C@@H]2C(=O)C[C@@H](c4ccoc4)[C@]2(C)[C@@H](OC(C)=O)C(=O)[C@@H]13 | -0.88 | 3.95 | –
CC(=O)O[C@@H]1C[C@H](O)[C@@]23COC(=O)[C@]1(C)[C@@H]2C[C@@H](O)[C@]1(C)[C@@H]3C(=O)C(O)[C@@]2(C)[C@H](c3ccoc3)C[C@H]3O[C@@]312 (mixture of isomers) | 9.96 | 9.58 | –
CC(=O)O[C@@H]1C[C@H](O)[C@@]23COC(=O)[C@]1(C)[C@@H]2C[C@@H](O)[C@]1(C)[C@@H]3C(=O)[C@H](OC(C)=O)[C@@]2(C)[C@H](c3ccoc3)C[C@H]3O[C@]321 | 93.8 | 68.7 | inhibition (HCC1806 [4]): Active; Activity (HCC1806 [5]): Active; Activity (HCC1806 [6]): Active; Activity (HCC1806 [7]): Active; IC50 (HCC1806 [9]): 0.98 µM; Activity (HCC1806 [10]): Active; inhibition [11]: Active; IC50 (MDA-MB-231 [12]): 6.61 µM; Activity (HCC1806 [13]): Active
CC(=O)O[C@H]1C[C@@H](OC(C)=O)[C@]2(C)C(O)OC[C@]13[C@H]1C(=O)[C@H](OC(C)=O)[C@@]4(C)[C@H](c5ccoc5)C[C@H]5O[C@]54[C@]1(C)[C@H](OC(C)=O)C[C@@H]23 (stereo partly drawn) | -27.9 | 6.36 | –
CC(=O)O[C@@H]1C[C@H](O)[C@@]23COC[C@]1(C)[C@@H]2C[C@@H](OC(=O)c1ccccc1)[C@@]1(C)[C@@H]2C(=O)C[C@@H](c4ccoc4)[C@]2(C)[C@@H](OC(C)=O)C(=O)[C@@H]13 | 14.9 | 20.7 | –
CC(=O)O[C@@H]1C[C@H](O)[C@@]23COC[C@]1(C)[C@@H]2C[C@@H](OC(=O)/C=C/c1ccc(OC(F)(F)F)cc1)[C@@]1(C)[C@@H]2C(=O)C[C@@H](c4ccoc4)[C@]2(C)[C@@H](OC(C)=O)C(=O)[C@@H]13 | 18.1 | 9.9 | –
CC(=O)O[C@@H]1C[C@H](O)[C@@]23COC[C@]1(C)[C@@H]2C[C@@H](O)[C@@]1(C)[C@@H]2/C(=N/O)C[C@@H](c4ccoc4)[C@]2(C)[C@@H](OC(C)=O)C(=O)[C@@H]13 | 10.9 | 4.72 | –
CC(=O)O[C@@H]1C[C@H](O)[C@@]23COC[C@]1(C)[C@@H]2C[C@@H](O)[C@@]1(C)[C@@H]2[C@@H](O)C[C@@H](c4ccoc4)[C@]2(C)[C@@H](OC(C)=O)C(=O)[C@@H]13 | 87.3 | 61.5 | IC50 (HCC1806 [9]): 5.76 µM; IC50 (MDA-MB-231 [12]): 11.8 µM
COC1OC[C@]23[C@@H](O)C[C@@H](OC(C)=O)[C@@]1(C)[C@@H]2C[C@@H](O)[C@@]1(C)[C@@H]2C(=O)C[C@@H](c4ccoc4)[C@]2(C)[C@@H](OC(C)=O)C(=O)[C@@H]13 (stereo partly drawn) | -15.8 | 4.29 | –
CC(=O)O[C@@H]1C[C@H](O)[C@@]23COC[C@]1(C)[C@@H]2CC(=O)[C@@]1(C)[C@@H]2C(=O)C[C@@H](c4ccoc4)[C@]2(C)[C@@H](OC(C)=O)C(=O)[C@@H]13 | 14.7 | 11.7 | –
CC(=O)O[C@@H]1C[C@H](O)[C@@]23COC[C@]1(C)[C@@H]2C[C@@H](OC(=O)c1ccccc1F)[C@@]1(C)[C@@H]2C(=O)C[C@@H](c4ccoc4)[C@]2(C)[C@@H](OC(C)=O)C(=O)[C@@H]13 | -1.53 | 8.23 | –
CC(=O)O[C@H]1C[C@@H](OC(C)=O)[C@]2(C)C(=O)OC[C@]13[C@H]1C(=O)[C@H](OC(C)=O)[C@@]4(C)[C@H](c5ccoc5)C[C@H]5O[C@]54[C@]1(C)[C@H](OC(C)=O)C[C@@H]23 | -9.68 | 4.86 | –
CC(=O)O[C@@H]1C[C@H](O)[C@@]23COC(=O)[C@]1(C)[C@@H]2C[C@@H](O)[C@@]1(C)[C@@H]2C(=O)C[C@@H](c4ccoc4)[C@]2(C)[C@@H](OC(C)=O)C(=O)[C@@H]13 | -24.7 | 6.87 | –
CC(=O)O[C@@H]1C[C@H](O)[C@@]23COC[C@]1(C)[C@@H]2C[C@@H](O)[C@@]1(C)[C@@H]2C(=O)C[C@@H](c4ccoc4)[C@]2(C)[C@@H](OC(C)=O)C(=O)[C@@H]13 | -42.3 | 5.4 | –
